Where “and” joins values, the source holds several entries; their conditions need not be identical. Equal values may be shown once.

For orientation: melting point means the temperature of the solid-liquid transition. In turn, `OCc1ccc(Cl)cc1` [4-chlorobenzyl alcohol] came in with a melting point of 71 °C. For `CC(=O)NC(CCC(N)=O)C(=O)O` (stereo not drawn) [aceglutamide], the melting point came out at 197 °C. As to `CCOC(=O)c1ccc(O)cc1` [ethyl p-hydroxybenzoate], the melting point worked out at 116 °C. In turn, `CCOc1ccc(NC(=O)CN)cc1` [phenocoll] showed a melting point of 101 °C. Under `CNC[C@H](O)[C@@H](O)[C@H](O)[C@H](O)CO` [N-methyl-D-glucamine] stands 130 °C.

`N#CCC(=O)NN` [cyanoacetic acid hydrazide] registered a melting point of 108 °C.

On to `ClCC(CCl)(CCl)CCl` [pentaerythrityl tetrachloride], for which the melting point was found to be 95 °C.

On to `O=C(O)c1cc(O)ccc1[N+](=O)[O-]` [5-hydroxy-2-nitrobenzoic acid], for which the melting point is 170 °C. Under `CCOC(=O)c1cc(C)n(-c2ccc(C(F)(F)F)cc2)c1C` [OSM-S-32] stands 67.5 °C; under `Cc1cc(I)cc(C)c1O` [2,6-dimethyl-4-iodophenol], 97 °C; under `CC1=CC(=O)OC1=O` [citraconic anhydride], 8 °C. In the case of `CN(C)CCOc1ccc(/C(=C(/CCCl)c2ccccc2)c2ccccc2)cc1` [Toremifene] it was 109 °C.

On to `COc1ccc2oc(-c3cc(OC)c(OC)cc3OC)c(O)c(=O)c2c1` [3-hydroxy-2',4',5',6-tetramethoxyflavone], for which the melting point is 202 °C. In the case of `Cc1c(C)c(C)c(C)c(C)c1C` [Hexamethylbenzene] it was 167 °C; in that of `O=[N+]([O-])c1ccc(O)c([N+](=O)[O-])c1` [2,4-Dinitrophenol], 108 °C; in that of `CC1(O)CCCCC1` [1-methylcyclohexanol], 26 °C. `BrCCCCCCBr` [1,6-Dibromohexane] had a melting point of 2 °C. Under `C[C@@H](O)[C@H](O)[C@H](O)[C@@H](O)C=O` [D-fucose] stands 145 °C. Under `CCCC(=O)OCSc1ncnc2c1ncn2COC(=O)CCC` [S6,9-Bis(butanoyloxymethyl)-6-mercaptopurine] stands 69 °C; under `CCCC(C)(COC(N)=O)COC(N)=O` [Meprobamate], 105 °C. `COc1c(N2C[C@@H]3CCCN[C@@H]3C2)c(F)cc2c(=O)c(C(=O)O)cn(C3CC3)c12` [Moxifloxacin]: the melting point was 240 °C.

The molecule `COc1cccc(-c2nnn[nH]2)c1` [5-(3-methoxyphenyl)-1h-tetrazole] showed a melting point of 157 °C. `CCCCCCCCCCCCS(=O)(=O)Cl` [1-dodecanesulfonyl chloride] returned a melting point of 41 °C. In the case of `Cc1cccc(Cl)c1` [1-Chloro-3-methylbenzene] it was -48 °C.

Molecule `Cc1ccc(-n2c(C)ccc2C)cc1` [OSM-S-26] showed a melting point of 45.5 °C. The molecule `O=C(O)C(Cl)(Cl)Cl` [trichloroacetic acid] yielded a melting point of 57.5 °C.

Take `c1ccc2ccccc2c1` [naphthalene]: the melting point is 83 °C and 80.2 °C. `Brc1cc(Br)cc(Br)c1` [1,3,5-tribromobenzene] had a melting point of 123 °C. `N#Cc1ccc(C#N)cc1` [1,4-dicyanobenzene] showed a melting point of 226 °C. `COc1cc2c(c(OC)c1OC)-c1ccc(OC)c(=O)cc1[C@@H](NC(C)=O)CC2` [Colchicine] returned a melting point of 156 °C. With `Nc1ccc(S(=O)(=O)Nc2ncccn2)cc1` [sulfadiazine], the melting point is 252 °C and 256 °C and 254 °C. Consider `CCCNC(N)=O` [N-propylurea], for which the melting point was 102 °C.

`c1ccc2c(c1)CCCN2` [1,2,3,4-tetrahydroquinoline] returned a melting point of 14 °C. The molecule `O=C(C1CCCCC1)N1CC(=O)N2CCc3ccccc3C2C1` (stereo not drawn) [Praziquantel] yielded a melting point of 136 °C. In the case of `CC(C)(C)c1ccc(O)c(C(C)(C)C)c1` [2,4-di-tert-butylphenol] it was 55 °C; in that of `CC(=O)Nc1ccc(O)cc1` [4-acetamidophenol], 170 °C; in that of `ClC/C=C/c1ccccc1` [cinnamyl chloride], 7 °C. In the case of `c1ccc(CN(Cc2ccccc2)Cc2ccccc2)cc1` [tribenzylamine] it was 93 °C; in that of `O=C1NC(=O)C(c2ccccc2)(c2ccccc2)N1` [phenytoin], 296 °C and 295 °C. Regarding `CCOC(=O)Nc1ccc2c(c1)N(C(=O)CCN1CCOCC1)c1ccccc1S2` [moricizine], the melting point was found to be 156 °C. `NS(=O)(=O)Cc1ccccc1` [alpha-toluenesulfonamide] showed a melting point of 103 °C. Regarding `CCC1=Nc2ccccc2C1(C)C(=O)OC` (stereo not drawn) [methyl 2-ethyl-3-methyl-3H-indole-3-carboxylate], the melting point is 72 °C. For `CC(C)C(=O)O` [2-methylpropanoic_acid], the melting point is -46 °C.

The molecule `C=CCCCCCCCCCCCCCC` [1-hexadecene] returned a melting point of 4 °C. `COc1cc(C(=O)O)cc(OC)c1O` [syringic acid] returned a melting point of 207 °C. In the case of `OB(O)C1CC1` [cyclopropylboronic acid] it was 93 °C. Take `CCOC(=O)c1c[nH]nc1C(F)(F)F` [ethyl 3-trifluoromethyl-1h-pyrazole-4-carboxylate]: the melting point worked out at 144 °C. Molecule `Cc1cnc(s1)NC(=O)C\3=C(/O)c2ccccc2S(=O)(=O)N/3C` [meloxicam] returned a melting point of 254 °C.

Regarding `Oc1ccc(Cl)c(O)c1` [4-chlororesorcinol], the melting point stood at 107 °C. In the case of `CCCCCCCCCCCCCCCCCCCCCCCCCCCCCCCCC` [Tritriacontane] it was 72 °C; in that of `OB(O)c1ccc(F)cc1` [4-fluorobenzeneboronic acid], 263 °C.

The molecule `c1ccc2nc3ccccc3nc2c1` [Phenazine] came in with a melting point of 158 °C. In the case of `C[C@@H]1C[C@H]1C` (relative stereo) [trans-1,2-dimethylcyclopropane] it was -150 °C; in that of `COc1ccc2c(c1)=NC(c1ccccc1)C=2c1ccccc1` (stereo not drawn) [6-methoxy-2,3-diphenyl-1H-indole], 212 °C. Consider `CCOc1ccc(B(O)O)cn1` [6-ethoxypyridine-3-boronic acid], for which the melting point came to 103 °C.

On to `CC12CCC3C(CCC4CC(O)CCC43C)C1CCC2=O` (stereo not drawn) [3-Hydroxyandrostan-17-one], for which the melting point is 174 °C. Consider `O=C1OC(c2ccccc2)=NC1=Cc1ccccc1F` [4-(2-Fluoro-benzylidene)-2-phenyl-4H-oxazol-5-one], for which the melting point turned out to be 149 °C. Molecule `CCCCC(=O)N(Cc1ccc(-c2ccccc2-c2nnn[nH]2)cc1)C(C(=O)O)C(C)C` (stereo not drawn) yielded a melting point of 116 °C. In turn, `Nc1cccc(O)c1` [3-Aminophenol] had a melting point of 125 °C. In the case of `CCOC(=O)C(=Nn1nnc2ccccc21)C(=O)OCC` [diethyl (1h-benzotriazol-1-yl)iminomalonate] it was 100 °C; in that of `c1csc(C2CNCCN2)c1` (stereo not drawn) [2-(2-thienyl)piperazine], 83 °C. On to `N#CCc1ccc(CC#N)cc1` [1,4-phenylenediacetonitrile], for which the melting point was 96 °C. Consider `Cc1ccc(C=C2N=C(c3ccccc3)OC2=O)o1` [4-(5-Methyl-furan-2-ylmethylene)-2-phenyl-4H-oxazol-5-one], for which the melting point stood at 160 °C.
